The values below come from patent US9822101B1, “Pyrazole compounds” (Eli Lilly and Company, priority 2015, dated 2017).

SMILES strings stand for the structures.

Assay [1] concerns the target T1, Human DPP-4 ((39-766)-His) (Homo sapiens, UniProt P27487).
T1 construct: Human DPP-4 ((39-766)-His); His (C); made in house
In words: Enzymatic activity assay of human DPP-4 (Gly-Pro-AMC fluorescence). The following applies: Mean ± SEM; substrate 10 μM, 30 minutes; read-out: hDPP-4 IC50. In kind it is biochemical. As to the method: (§1) Human DPP-4 ((39-766)-His) and mouse DPP-4 ((29-760)-His) are purified for use in the assay. The final concentration of hDPP-4 and mDPP-4 in the assay is 0.04 nM and 0.22 nM respectively.
(§2) Inhibition of the catalytic activity of human and mouse DPP-4 by the compound in the present invention is monitored by the formation of product fluorescence AMC (7-amido-4-methylcoumarin hydrobromide) from substrate Gly-Pro-AMC (Sigma, G2761) on an Envision plate reader. The reaction is typically conducted by incubating the enzyme, test compound, and substrate (10 μM) in a 75 μl assay buffer (0.01% BSA, 0.1 mM EDTA, […], 0.01% Triton™-X100, 0.1 M NaCl at pH 7.5) for 30 minutes. After the reaction is stopped by the addition of 25 μl ZnSO4 (10 mM), the formation of fluorescent product AMC is measured on an Envision plate reader with the excitation wavelength at 355 nm and emission wavelength at 460 nm. The IC50 value is calculated typically from a 10-point dose titration curve using the 4-parameter logistic equation.

Assay [2] has as its target T2, mouse DPP-4 ((29-760)-His) (Mus musculus, UniProt P28843).
T2 construct: mouse DPP-4 ((29-760)-His); His (C); made in house
Kind of assay: Enzymatic activity assay of mouse DPP-4 (Gly-Pro-AMC fluorescence). The format is biochemical. Particulars: Mean ± SEM; substrate 10 μM, 30 minutes; read-out: mDPP-4 IC50. The procedure:
as §1, §2

The target of assay [3] is T3, human MetAP1 (Homo sapiens, UniProt P53582).
T3 construct: Full length MetAP2 (human and mouse) and MetAP1 (human) proteins are generated from Sf9 cells; made in house; host or cells: Sf9 cells
Kind of assay: Enzymatic activity assay of human MetAP1 (fluorescence, rhodamine-methionine). In kind it is biochemical. The following applies: substrate 50 μM, 60 minutes; read-out: hMetAP1 IC50. As to the method:
(§3) Full length MetAP2 (human and mouse) and MetAP1 (human) proteins are generated from Sf9 cells using procedure similar to that described in Biochemistry 2003, 42, 5035-5042. MetAP2 and MetAP1 are purified in the presence of 5 mM MnCl2 and 2 mM CoCl2 respectively, and stored at −78° C. before use.
(§4) Inhibition of the catalytic activity of human and mouse MetAP2 by compounds in the present invention is measured by monitoring the formation of the product peptide (Gly-Lys-Val-Lys-Val-Gly-Val-Asn-Gly) from the substrate peptide (Met-Gly-Lys-Val-Lys-Val-Gly-Val-Asn-Gly) via LC/MS. The reaction is typically conducted by incubating the enzyme, test compound and substrate (150 μM) in a 100 μl assay buffer (50 mM HEPES, 100 mM NaCl, […], 0.17 mM Triton™ X-100 μl at pH 7.5) for 40 minutes. After the reaction is stopped by the addition of 200 μl CH3CN, the levels of product and remaining substrate are quantified with a mass spectrometer. The activity of human MetAP1 is monitored by the formation of the fluorescent product rhodamine-methionine from the substrate methionine-rhodamine-methionine on a spectrophotometer with the excitation light at 460 nm and emission light at 535 nm. The reaction is typically conducted by incubating the enzyme, test compound and substrate (50 μM) in a 100 μl assay buffer (50 mM HEPES, 100 mM NaCl, 0.1% BSA, 0.05% Tween®-20, 50 μM CoCl2) for 60 minutes. […]

Assay [4] concerns the target T4, plasma DPP-4 (Mus musculus, UniProt P28843).
T4 construct: Plasma, isolated from the blood samples, is used to determine the plasma DPP-4 enzyme activity; from tissue; host or cells: plasma of C57B/L6 mice dosed with compound
Kind of assay: DPP-4 pharmacodynamics assay in mouse (plasma DPP-4 enzyme activity). The format is in vivo. The following applies: C57B/L6 lean mice, oral gavage, vehicle group = 0%. The procedure: To determine the in vivo DPP-4 inhibition by MetAP2 plus DPP-4 dual inhibitor compounds, C57B/L6 lean mice are administrated with the compound in fed states and then DPP-4 target engagement in plasma is measured. Animals are weighed and randomized by body weight. Each mouse is dosed via oral gavage with vehicle or testing compound formulated with vehicle for up to 3 times. The first dose is administrated at 9˜10 am on day 1. The second dose is administrated at 16:30˜17:30 on day 1. The third dose is administrated at 9˜10 am on day 2. The mice are fasted for 6 hours after the last dose before termination at ˜[…] on day 2. Blood samples are collected at 1 hour after the first dosing and upon termination. EDTA-K2 at final concentration of 5 mM is used as an anticoagulant. Plasma, isolated from the blood samples, is used to determine the plasma DPP-4 enzyme activity. Plasma DPP-4 enzyme activity in the present invention is monitored by the formation rate of fluorescence AMC from substrate Gly-Pro-AMC (Sigma, G2761) via Envision plate reader. […] Fluorescence signal is read immediately after the start of the reaction in kinetic model in Envision plate reader. […] The plasma DPP-4 activity is calculated from reaction velocity. […]

Assay [5] addresses T5, human MetAP2 (Homo sapiens, UniProt P50579).
T5 construct: Full length MetAP2 (human and mouse) and MetAP1 (human) proteins are generated from Sf9 cells; made in house; host or cells: Sf9 cells
In words: Enzymatic activity assay of human MetAP2 (LC/MS product peptide). In kind it is biochemical. Particulars: Mean ± SEM; substrate 150 μM, 40 minutes; read-out: hMetAP2 IC50. As to the method:
as §3, §4

Assay [6] deals with T6, mouse MetAP2 (Mus musculus, UniProt O08663).
T6 construct: Full length MetAP2 (human and mouse) and MetAP1 (human) proteins are generated from Sf9 cells; made in house; host or cells: Sf9 cells
T6 sequence (O08663 whole entry): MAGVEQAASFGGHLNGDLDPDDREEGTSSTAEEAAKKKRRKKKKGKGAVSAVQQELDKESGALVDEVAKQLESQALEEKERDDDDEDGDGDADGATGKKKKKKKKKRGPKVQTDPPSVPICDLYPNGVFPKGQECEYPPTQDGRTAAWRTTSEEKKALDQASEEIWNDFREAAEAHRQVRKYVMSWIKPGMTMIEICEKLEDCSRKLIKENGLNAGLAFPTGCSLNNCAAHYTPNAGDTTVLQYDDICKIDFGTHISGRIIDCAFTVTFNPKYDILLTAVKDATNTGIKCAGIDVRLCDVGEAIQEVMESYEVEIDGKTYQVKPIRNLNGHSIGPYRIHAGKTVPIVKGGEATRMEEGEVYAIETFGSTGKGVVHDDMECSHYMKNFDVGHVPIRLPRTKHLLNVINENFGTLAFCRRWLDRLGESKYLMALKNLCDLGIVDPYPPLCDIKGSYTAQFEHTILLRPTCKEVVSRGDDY
Kind of assay: Enzymatic activity assay of mouse MetAP2 (LC/MS product peptide). In kind it is biochemical. Particulars: Mean ± SEM; substrate 150 μM, 40 minutes; read-out: mMetAP2 IC50. As to the method:
as §3, §4

For assay [7], the system named is obese DIO mice. In words: Therapeutic weight loss effect in high fat diet induced obese (DIO) mice. The format is in vivo, mouse. Particulars: day 14. The procedure:
To determine the therapeutic weight loss effects and improvement of metabolic parameters, the compound from the invention is tested in the high fat diet (HFD) feeding induced obese mouse model (DIO mice). In this model, C57/Bl6J male mouse is fed with the 60% HFD (D12492i, Research Diets) for 16˜28 weeks to establish obesity with body weight reaching around 50 g. The mice will gradually increase the body weight to about 50 g and maintain that weight in this obese state. Test compound (via the vehicle of 0.5% HEC plus 0.25% Tween®-80 at 5 mL/kg) is administered orally to the obese DIO mice once or twice daily throughout the study duration. The dose-dependent weight loss of obese DIO mice for Example 1 of the oral treatment at 20 mg/kg and 60 mg/kg once daily is about 4% and 17% weight loss compared to the vehicle group at day 14, respectively. The data support that the compound of Example 1 is associated with desired weight loss and could offer a therapeutic weight loss effect.

T4 sequence (P28843 37-760 limits assumed): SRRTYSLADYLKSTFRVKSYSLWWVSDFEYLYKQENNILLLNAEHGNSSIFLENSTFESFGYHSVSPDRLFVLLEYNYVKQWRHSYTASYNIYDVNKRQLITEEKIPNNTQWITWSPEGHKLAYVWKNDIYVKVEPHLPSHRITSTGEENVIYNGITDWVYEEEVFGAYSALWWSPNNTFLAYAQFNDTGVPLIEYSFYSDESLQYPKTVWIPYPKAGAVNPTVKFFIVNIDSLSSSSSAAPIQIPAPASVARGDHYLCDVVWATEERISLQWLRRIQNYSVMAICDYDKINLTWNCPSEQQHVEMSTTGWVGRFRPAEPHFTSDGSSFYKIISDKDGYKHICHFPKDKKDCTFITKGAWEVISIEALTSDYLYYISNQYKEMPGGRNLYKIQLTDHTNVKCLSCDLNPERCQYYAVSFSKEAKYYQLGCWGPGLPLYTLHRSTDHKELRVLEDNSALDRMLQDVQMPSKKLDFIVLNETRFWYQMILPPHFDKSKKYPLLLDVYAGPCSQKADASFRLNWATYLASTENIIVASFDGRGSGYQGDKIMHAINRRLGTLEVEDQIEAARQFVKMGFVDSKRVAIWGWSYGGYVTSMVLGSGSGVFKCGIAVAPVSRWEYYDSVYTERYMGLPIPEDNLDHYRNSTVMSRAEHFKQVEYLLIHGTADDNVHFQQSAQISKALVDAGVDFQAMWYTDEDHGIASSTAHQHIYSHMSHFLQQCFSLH
T5 sequence (P50579 whole entry): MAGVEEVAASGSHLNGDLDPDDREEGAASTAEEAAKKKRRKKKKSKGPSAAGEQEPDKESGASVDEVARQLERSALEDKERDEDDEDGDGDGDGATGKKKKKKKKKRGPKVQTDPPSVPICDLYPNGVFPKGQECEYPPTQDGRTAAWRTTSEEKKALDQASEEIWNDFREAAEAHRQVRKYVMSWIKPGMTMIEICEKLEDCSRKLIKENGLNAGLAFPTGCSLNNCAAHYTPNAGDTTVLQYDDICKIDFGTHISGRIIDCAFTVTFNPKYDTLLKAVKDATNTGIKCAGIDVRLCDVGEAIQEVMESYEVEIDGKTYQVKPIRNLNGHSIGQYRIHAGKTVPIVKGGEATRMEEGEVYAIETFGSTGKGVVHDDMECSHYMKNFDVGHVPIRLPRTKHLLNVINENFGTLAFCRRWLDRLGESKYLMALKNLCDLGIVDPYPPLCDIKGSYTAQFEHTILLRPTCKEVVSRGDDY
T2 sequence (P28843 29-760): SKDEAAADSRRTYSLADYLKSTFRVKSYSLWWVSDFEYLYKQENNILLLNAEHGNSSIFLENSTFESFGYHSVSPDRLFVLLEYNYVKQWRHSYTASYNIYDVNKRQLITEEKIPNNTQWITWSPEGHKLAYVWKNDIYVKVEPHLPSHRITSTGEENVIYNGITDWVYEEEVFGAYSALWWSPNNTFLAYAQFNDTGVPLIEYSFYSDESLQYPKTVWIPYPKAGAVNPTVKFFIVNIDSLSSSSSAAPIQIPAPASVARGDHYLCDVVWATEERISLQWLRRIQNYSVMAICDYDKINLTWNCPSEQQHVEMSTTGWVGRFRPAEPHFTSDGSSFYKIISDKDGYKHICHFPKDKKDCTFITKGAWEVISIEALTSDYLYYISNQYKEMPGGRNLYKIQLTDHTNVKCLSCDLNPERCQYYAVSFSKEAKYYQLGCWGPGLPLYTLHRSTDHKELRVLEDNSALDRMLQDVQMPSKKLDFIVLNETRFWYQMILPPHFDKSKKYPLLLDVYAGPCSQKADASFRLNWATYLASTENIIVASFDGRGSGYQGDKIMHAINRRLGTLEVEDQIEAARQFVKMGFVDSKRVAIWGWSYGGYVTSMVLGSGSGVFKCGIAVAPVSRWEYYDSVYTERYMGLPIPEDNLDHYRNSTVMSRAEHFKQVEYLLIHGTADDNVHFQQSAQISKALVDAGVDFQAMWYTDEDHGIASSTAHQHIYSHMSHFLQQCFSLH
T1 sequence (P27487 39-766): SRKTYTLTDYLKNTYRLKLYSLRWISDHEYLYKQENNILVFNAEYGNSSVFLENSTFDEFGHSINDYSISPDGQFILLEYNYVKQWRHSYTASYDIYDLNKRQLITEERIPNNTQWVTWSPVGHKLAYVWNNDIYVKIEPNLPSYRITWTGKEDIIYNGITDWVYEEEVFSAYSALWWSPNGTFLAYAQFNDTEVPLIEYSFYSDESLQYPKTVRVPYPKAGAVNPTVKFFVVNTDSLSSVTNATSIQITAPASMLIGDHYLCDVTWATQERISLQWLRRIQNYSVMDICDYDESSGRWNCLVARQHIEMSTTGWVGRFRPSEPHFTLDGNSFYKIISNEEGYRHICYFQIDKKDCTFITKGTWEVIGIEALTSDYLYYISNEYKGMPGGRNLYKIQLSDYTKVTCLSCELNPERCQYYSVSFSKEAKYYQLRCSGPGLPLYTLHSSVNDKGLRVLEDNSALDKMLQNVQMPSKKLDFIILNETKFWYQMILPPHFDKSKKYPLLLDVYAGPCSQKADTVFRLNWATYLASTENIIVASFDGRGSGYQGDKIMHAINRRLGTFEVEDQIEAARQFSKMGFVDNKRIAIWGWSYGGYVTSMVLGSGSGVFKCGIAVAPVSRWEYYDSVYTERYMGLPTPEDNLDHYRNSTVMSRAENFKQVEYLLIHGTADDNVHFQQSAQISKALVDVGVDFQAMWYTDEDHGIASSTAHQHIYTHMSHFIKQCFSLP

Regarding `N[C@H]1CN(c2ncc(Oc3c[nH]nc3C3=CCC(F)(F)CC3)cn2)C[C@@H]1c1cc(F)c(F)cc1F` [Example 1, (3R,4S)-1-[5-[[3-(4,4-Difluorocyclohexen-1-yl)-1H-pyrazol-4-yl]oxy]pyrimidin-2-yl]-4-(2,4,5-trifluorophenyl)pyrrolidin-3-amine], the IC50 in assay [1] is 6 ± 2 nM; in assay [2], 26 ± 11 nM; in assay [3], greater than 30 µM; in assay [5], 9 ± 3 nM; in assay [6], 36 ± 34 nM. For the same compound, the “plasma DPP-4 inhibition” value came to 86% in assay [4] (1 hour after the first dosing) and 83% in assay [4] (upon termination (6 hours after the last dose, day 2)). For the same compound, the “weight loss compared to the vehicle group” value in assay [7] (oral 20 mg/kg once daily) is listed as “about 4%”; in assay [7] (oral 60 mg/kg once daily) it was roughly 17%.
